# Reference: patent US20120270914A1, “SPLIT-LUCIFERASE C-MYC SENSOR AND USES THEREOF” (THE BOARD OF TRUSTEES OF THE LELAND STANFORD JUNIOR …, priority 2011, published 2012)
# pIC50: −log10 of the molar value.
# Tests used:
# [1] = system: NFL-c-MycS62A mutant sensor; test: BLI of SKBR3 cells transiently transfected with the S62A mutant sensor; format: cell-based, human; details: PD98059 1 h
# Experimental: FIG. 14A is a digital image showing the NFL-c-Myc WT construct or the NFL-c-MycS62A mutant construct transiently transfected into SKBR3 cells with GSK 35-433-CFL construct and subjected to PD98059 of indicated concentration for 1 h, followed by BLI.
# FIG. 14B is a graph showing FL activity normalized to co-transfected RL activity and the total protein content and plotted against the drug concentration.
# These differential signal inhibitions also were correlated with the decreased endogenous c-Myc phosphorylation level, as shown in FIG. 6A.
# c-Myc [2] = details: Hydbring et al. 2009; cited from earlier work
# c-Myc [3] = test: Drug inhibition assay: BLI of SKBR3 stable cells constitutively expressing the c-Myc sensor (SK ST), normalized to full-length FL cells (SK FST); format: cell-based, human; details: for complemented FL activity: SK ST cells, after normalization to effect on FL activity of SK FST cells, PD98059 2 h, U0126 1 h, AT 16 h; for reduction in complemented FL activity compared between drugs: SK ST cells normalized to SK FST cells
# Experimental: (§1) To test the ability of the sensor to monitor c-Myc phosphorylation levels on drug treatment, the SKBR3 and 293T stable cells (SK ST and 293T ST) were established that constitutively express the sensor. SKBR3 and 293T stable cells were also constructed that constitutively express the full-length FL (SK FST and 293T FST) for the control of direct drug effect on FL activity.
# (§2) Luciferase Activity Assay: BLI of luciferase activity in intact cells was performed as described previously (Hann (2006) Semin Cancer Biol 16(4):288-302). In brief, 24 h after transfection, culture medium was replaced with a PBS solution (pH 7.0) of 45 μg/mL D-Luc for FL imaging or of 10 μg/mL of Clz for RL imaging with the IVIS BLI system (Xenogen). Images were acquired at 2-min intervals until the peak signal was reached. The photon output of FL or RL imaging in transiently transfected cells was normalized to co-expressed RL or FL activity, respectively, measured by an in vitro luminometry assay as described previously (Chan et al. (2008) Cancer Res. 68:216-226), then normalized to the total protein in the cell lysates, measured by the BioRad DC protein assay as directed by the manufacturer. In stable cells, the photon output of FL imaging was normalized to the total protein in the cell lysates.
# (§3) Drug Inhibition Assay: SKBR3 stable cells constitutively expressing the sensor system (SK ST) or the full-length FL (SK FST) were treated with PD98059 (Cell Signaling) for 2 h, U0126 (Cell Signaling) for 1 h, and purified AT (Sequoia Research Products) for 16 h at the indicated concentrations and imaged with D-Luc in the IVIS 50 BLI system (FIGS. 6A and 6B, and FIGS. 10A-12D). In addition, 293T stable cells constitutively expressing the sensor system (293T ST) or the full-length FL (293T FST) were treated with AT for 16 h at the indicated concentrations (FIGS. 6A and 6B, and FIGS. 13A-13D) and imaged with D-Luc in the IVIS 50 system. The photon output of FL imaging was normalized to the total protein content, and the FL activity of SK ST or 293T ST was normalized to that of SK FST or 293T FST, respectively. SKBR3 and 293T cells were treated as above and lysed for Western blot analysis of phospho c-Myc, c-Myc, and β-actin proteins. The correlation coefficient between the fold change of normalized FL activity and the fold change of normalized phospho c-Myc level (phospho c-Myc/β-actin) was determined based on the R^2 value.
# c-Myc [4] = test: Western blot analysis of endogenous phospho c-Myc in SKBR3 cells; format: cell-based, human; details: for endogenous c-Myc phosphorylation level: Western blot
# Experimental: (§4) FIGS. 26A and 26B illustrate the inhibition of endogenous c-Myc. FIG. 26A: Western blot analysis of SKBR3 cells after NTZ treatment was performed using phospho c-Myc, c-Myc protein, and β-actin antibodies. […] The fold-change of phospho c-Myc level was plotted against the log scale of NTZ concentration.
# (§5) Western Blot Analysis: Total cell lysates were collected using 1× cell lysis buffer (Cell Signaling), as directed by the manufacturer. The protein concentration was determined using the BioRad DC protein assay. SDS/PAGE analysis of 50 μg of protein was transferred to an lmmobilon-P membrane (Millipore). Anti-phosphor-c-Myc (Thr58/Ser62) and anti-c-Myc antibody (Cell Signaling) were used to visualize the phospho c-Myc and c-Myc protein, respectively, as directed by the manufacturer. Anti-FLuc-HRP antibody was used to detect the FL fragments, as directed by the manufacturer (Sigma-Aldrich). β-actin protein was used as a loading control and detected by anti-β-actin antibody (Sigma-Aldrich). Immunoblots were developed using the Pierce ECL Kit, as directed by the manufacturer. Protein levels were determined by quantifying the band intensities on Western blot analysis using ImageJ's ROI manager.
# as §3
# c-Myc [5] = test: Phospho c-Myc level in lymphoma cells; format: cell-based; details: read-out: IC50, inhibition of phospho c-Myc level
# Experimental: as §4
# c-Myc [6] = test: Phospho c-Myc level in sarcoma cells; format: cell-based; details: read-out: IC50, inhibition of phospho c-Myc level
# Experimental: as §4
# [7] = system: SK-ST subcutaneous tumor xenograft; test: SK-ST subcutaneous tumor xenograft mouse model under NTZ treatment; format: in vivo; details: NTZ vs CMC treated groups, up to 27 days after implantation
# From the text: FIGS. 27A and 27B illustrate the efficacy of NTZ in a SK-ST subcutaneous tumor xenograft mouse model. FIG. 27A: SK-ST stable cells were subcutaneously implanted as indicated and treated with NTZ or CMC. Representative images of FL imaging at indicated days of treatment are shown. FIG. 27B: Photon output of SK-ST cells with NTZ or CMC treatment is plotted against days after implantation. * P<0.05. […] FIG. 28A: Representative photographs of removed tumors from CMC or NTZ treated mice 27 days after implantation. FIG. 28B: Plot of caliper measured tumor sizes of NTZ or CMC treated groups at different days after implantation. *P<0.05, **P<0.01. FIGS. 29A and 29B illustrate immunohistochemistry and western blot analysis of NTZ treated tumor samples. FIG. 29A: Representative images of H&E, Ki67 and caspase-3 IHC staining of tumor tissue samples from each group. FIG. 29B: Western blot analysis of tumor tissue samples using phospho c-Myc, c-Myc and α-tubulin antibodies.
# c-Myc [8] = details: Shachaf et al. 2007; cited from earlier work
# c-Myc [9] = test: Western blot analysis of endogenous phospho c-Myc in 293T cells; format: cell-based, human
# Experimental: as §5, with “Immunoblots were developed using the Pierce ECL Kit, as directed by the manufacturer.” left out
# Drug Inhibition Assay: SKBR3 stable cells constitutively expressing the sensor system (SK ST) or the full-length FL (SK FST) were treated with PD98059 (Cell Signaling) for 2 h, U0126 (Cell Signaling) for 1 h, and purified AT (Sequoia Research Products) for 16 h at the indicated concentrations and imaged with D-Luc in the IVIS 50 BLI system (FIGS. 6A and 6B, and FIGS. 10A-12D). […] The correlation coefficient between the fold change of normalized FL activity and the fold change of normalized phospho c-Myc level (phospho c-Myc/β-actin) was determined based on the R^2 value.
# c-Myc [10] = test: Drug inhibition assay: BLI of 293T stable cells expressing the c-Myc sensor (293T ST), normalized to 293T FST; format: cell-based, human; details: 293T ST cells; after normalization to FL activity of 293T FST cells; AT 16 h
# Experimental: as §1
# as §2, with “lysates. […]” for “lysates.”
# [11] = system: SK ST and SK FST xenografts; test: BLI of SK ST and SK FST subcutaneous xenografts in nude mice under AT treatment; format: in vivo
# Experimental: The mice underwent gavage with AT (20 μL, 1.25 mM; n=5) or with PBS (20 μL; n=5) every other day.
# BLI of Living Mice: BLI of mouse xenografts was performed with the IVIS Spectrum optical imaging system (Xenogen) as described previously (Chan et al. (2008) Cancer Res. 68:216-226, incorporated herein by refrence in its entirety), with some modifications. At 4 h after transient transfection with the indicated constructs (FIG. 7A), 5×10^6 SKBR3 cells were implanted subcutaneously into the indicated locations of nude mice (nu/nu; n=3). At 16 h after cell implantation, a Clz PBS (0.3 μg/μL; 100 μL) solution was injected intravenously for RL imaging. Then, 8 h later, FL imaging was acquired with D-Luc PBS solution (45 μg/μL; 100 μL) via intraperitoneal injection. Subsequently, 5×10^6 each of SK ST and SK FST cells were implanted subcutaneously into nude mice (nu/nu; n=10) as indicated (FIG. 8A). FL imaging was performed 1 day after the implantation and every other day thereafter. After each FL imaging, half of the mice underwent gavage with AT PBS solution (1.25 mM; 20 μL), and the other half did so with PBS only (20 μL). After 23 d of treatment, the mice were killed, and xenograft tissue samples were collected for Western blot analysis of phospho c-Myc, c-Myc, and α-tubulin proteins.
# c-Myc [12] = test: Hydrodynamic injection of the c-Myc sensor and BLI in Eμ-tTA/Tet-O-MYC transgenic mice; format: in vivo
# From the text: To test the in vivo application of the sensor system, SKBR3 cells were first transiently transfected separately with equal DNA molar amounts of the vectors pcDNA3.1(+), GSK 35-433-CFL/NFL-c-Myc or GSK 35-433-CFL/NFL-c-Myc T851 and implanted them subcutaneously in different locations in each nude mouse (n=3; FIG. 7A). hRL was also co-expressed for control of transfection efficiency. […] However, on intraperitoneal injection of the FL substrate D-Luciferin (D-Luc), xenografts carrying pcDNA3.1(+) had very low complemented FL activity, whereas those carrying GSK 35-433-CFL/NFL-c-Myc had 10.6-fold higher activity. Those carrying GSK 35-433-CFL/NFL-c-Myc T851 had 4.7-fold higher activity after normalization to their hRL activity (FIG. 7C). Thus, the complemented FL activity determined by the phosphorylation status of NFL-c-Myc can be imaged and quantified in a mouse xenograft model. The sensor system was also transiently expressed in the liver of two transgenic mice using hydrodynamic injection. These mice carried a liver-specific transgene of c-Myc under control of the Tet system (Shachaf et al. (2007) Blood 110: 2674-2684).
# Both mice had doxycycline discontinued, followed by a 29-day course of treatment with AT in one mouse and with PBS in the other mouse. […] This signal reduction was consistent with the reduced endogenous c-Myc phosphorylation and the histological changes in the liver tissue samples (FIG. 7E).
# Hydrodynamic Injection: Eμ-tTA/Tet-O-MYC transgenic mice (Shachaf et al. (2007) Blood 110: 2674-2684) (n=2) were removed from doxycycline treatment at 8 wk of age and underwent gavage with AT or PBS as described above. At 29 d after treatment, these two mice underwent imaging studies to characterize the liver phospho c-Myc level after hydrodynamic injection (Frame et al., (2001) Mol. Cell 7: 1321-1327) of the c-Myc sensor. […]
compound,measurement,setting,value
COc1cccc(-c2cc(=O)c3ccccc3o2)c1N [PD98059],response of mutant sensor to phosphorylation inhibition of c-Myc,[1],did not respond
same,c-Myc phosphorylation level in vitro,c-Myc [2],decrease
same,complemented FL activity,c-Myc [3],dose-dependent reduction
same,endogenous c-Myc phosphorylation level,c-Myc [4],decreased
N#CC(=C(/N)Sc1ccccc1N)/C(C#N)=C(\N)Sc1ccccc1N [U0126],c-Myc phosphorylation level in vitro,c-Myc [2],decrease
same,reduction in complemented FL activity compared between drugs,c-Myc [3],greater reduction than PD98059
same,complemented FL activity,c-Myc [3],dose-dependent reduction
same,endogenous c-Myc phosphorylation level,c-Myc [4],decreased
"CC(=O)Oc1ccccc1C(=O)Nc1ncc([N+](=O)[O-])s1 [NTZ, nitazoxanide]",pIC50,c-Myc [5],6.36
same,pIC50,c-Myc [6],7.92
same,tumor growth (caliper measured tumor sizes),[7],inhibition of tumor growth
same,luciferase activity when cells are exposed to nitazoxanide,c-Myc [3]; in vitro validation of the assay system,decrease in luciferase activity
same,pIC50,"c-Myc [4]; read-out: IC50, inhibition of phospho c-Myc level",6.91
"CC(C)c1c(C(=O)Nc2ccccc2)c(-c2ccccc2)c(-c2ccc(F)cc2)n1CC[C@@H](O)C[C@@H](O)CC(=O)O [AT, Atorvastatin]",c-Myc-induced lymphomagenesis,c-Myc [8],preventing
same,phosphorylation of c-Myc,c-Myc [8],reduce
same,endogenous c-Myc phosphorylation level,c-Myc [9],increase
same,complemented FL activity,c-Myc [10],dose-dependent increase
same,c-Myc phosphorylation levels in tumor tissue samples,"[11]; 23 d after implantation, Western blot",decreased
same,sensor signal (complemented FL activity of SK ST normalized to SK FST),[11]; AT group,sustained decrease
same,tumor size,[11]; AT vs PBS group,no detectable difference
same,tumor growth,[11]; eventual effect of AT,reduced tumor growth
same,complemented FL activity of SK ST xenografts,"[11]; from 10 d after implantation, gavage AT 20 μL 1.25 mM every other day",increased only slightly
same,FL activity of SK FST xenografts,[11]; up to about 18 d after implantation,higher in the PBS-treated group compared with the AT-treated group
same,liver tumor size,"c-Myc [12]; 29-day treatment, AT vs PBS, one mouse each",no significant difference
same,endogenous c-Myc phosphorylation in liver tissue samples,c-Myc [12]; Western blot after 29-day treatment,reduced
same,complemented FL activity in liver,"c-Myc [12]; on addition of D-Luc, AT vs PBS treated mouse",much lower
same,reduction in complemented FL activity compared between drugs,c-Myc [3],greater reduction in complemented FL activity with lower drug concentrations than did U0126
same,complemented FL activity,c-Myc [3],dose-dependent reduction
same,endogenous c-Myc phosphorylation level,c-Myc [4],decreased
